Where “and” joins values, the source holds several entries; their conditions need not be identical. Identical values can stand only once. After the bases stand the sugars from the 5' end (letter, count) and the backbone: PS all phosphorothioate, else s phosphorothioate and o phosphodiester by linkage. Methylation of C is not given here. e = 2'-O-(2-methoxyethyl) (MOE); d = 2'-deoxy (DNA)
Target: DGAT2
Conditions: ASO

| Sequence | target mRNA inhibition (HepG2, 2.5 µM) | target mRNA inhibition (HepG2, 10 µM) | target mRNA inhibition (HepG2, 0.12 µM) | target mRNA inhibition (HepG2, 20 µM) |
| --- | --- | --- | --- | --- |
| GCCTGGACAAGTCCTGC (sugars e3 d10 e4, PS) | 68% and 75% | 89% and 97% |  |  |
| GCGCAGGACCCCGGAGTAGG (sugars e2 d13 e5, PS) |  |  | 72% |  |
| GCGCAGGACCCCGGAGTAGG (sugars e5 d10 e5, PS) |  |  | 79% |  |
| GCTAAGGAAAACTTAGGCAT (sugars e5 d10 e5, PS) | 56% | 89% and 85% |  |  |
| GCTATAGAATCAGACAGACC (sugars e5 d10 e5, PS) |  |  | 46% |  |
| GCTCAGAGACTCAGCCGCAC (sugars e2 d13 e5, PS) | 13% | 35% | 82% | 66% |
| GCTCAGTTCTTCCAACCAGT (sugars e5 d10 e5, PS) | 87% and 86% | 94% and 93% |  |  |
| GCTCATGAGAAGCTTAGAAG (sugars e5 d10 e5, PS) | 66% | 86% |  |  |
| GCTGAGAGAGACAATGAGTA (sugars e5 d10 e5, PS) |  |  | 54% |  |
| GCTGATTACAAGCTGATTCT (sugars e5 d10 e5, PS) | 59% | 76% |  |  |
| GCTGGATGGGAAAGTAGTCT (sugars e5 d10 e5, PS) |  |  | 22% |  |
| GCTTACCAACAGTGGTGATG (sugars e5 d10 e5, PS) |  |  | 21% |  |
| GCTTATCCTTGAGGGTCTCA (sugars e5 d10 e5, PS) | 82% and 77% and 88% | 94% and 89% and 95% |  |  |
| GCTTCAATAAATACCTTATC (sugars e5 d10 e5, PS) | 84% and 74% | 92% and 97% |  |  |
| GCTTCTTGGGCATCTGCTAG (sugars e5 d10 e5, PS) | 74% | 82% |  |  |
| GGACACCTGGAGCTGCGGCC (sugars e5 d10 e5, PS) | 35% | 73% |  |  |
| GGACAGAGGTTCAACATCCA (sugars e5 d10 e5, PS) | 58% | 89% |  |  |
| GGAGTTCTCGAATATCCCTA (sugars e5 d10 e5, PS) | 74% and 82% and 85% | 90% and 94% |  |  |
| GGATGCTGGATCCAGTGCCC (sugars e5 d10 e5, PS) |  |  | 32% |  |
| GGCAGAGAAACTGGTCCTGC (sugars e5 d10 e5, PS) | 55% | 81% |  |  |
| GGCAGGGCTTAGAATGGCTA (sugars e5 d10 e5, PS) |  |  | 48% |  |
| GGCATGGAGCTCAGAGACTC (sugars e5 d10 e5, PS) | 25% | 76% | 77% | 49% |
| GGCCAAGGCTGAGTCTGTGC (sugars e5 d10 e5, PS) |  |  | 17% |  |

| Sequence | target mRNA inhibition (HepG2, 2.5 µM) | target mRNA inhibition (HepG2, 10 µM) | target mRNA inhibition (HepG2, 0.12 µM) | target mRNA inhibition (HepG2, 20 µM) |
| --- | --- | --- | --- | --- |
| GGCCCAACCCCCTCAGGAAG (sugars e5 d10 e5, PS) |  |  | 19% |  |
| GGCCTTGGCTGCAAGCTCTG (sugars e5 d10 e5, PS) | 52% | 67% |  |  |
| GGCTGTCAGAGGCTACTGGC (sugars e5 d10 e5, PS) | 74% | 63% |  |  |
| GGCTTCACCGTCCCACAGCA (sugars e5 d10 e5, PS) |  |  | 39% |  |
| GGGCACCAGCCCCCAGGTGT (sugars e5 d10 e5, PS) |  |  | 34% |  |
| GGGCAGTCCTTTCCCCTGCA (sugars e5 d10 e5, PS) |  |  | 37% |  |
| GGGCGAAACCAATGTATTTC (sugars e5 d10 e5, PS) |  |  | 24% |  |
| GGGCTAATACCTACCTCACC (sugars e5 d10 e5, PS) | 53% | 74% |  |  |
| GGGTGTGTTCCAGTCAAACA (sugars e5 d10 e5, PS) |  |  | 6% |  |
| GGTAAGGCCGTATGCCTGGG (sugars e3 d14 e3, PS) |  |  | 51% |  |
| GGTAAGTCCTGATGATCCCC (sugars e5 d10 e5, PS) | 86% and 74% | 94% and 95% |  |  |
| GGTATCCAAAGATATAGTTC (sugars e5 d10 e5, PS) |  |  | 43% |  |
| GGTCAGCAGGTTGTGTGTCT (sugars e3 d14 e3, PS) |  |  | 57% |  |
| GGTCTGGGAACAGCAGC (sugars e3 d10 e4, PS) | 72% and 76% | 79% and 82% |  |  |
| GGTGACTGCATTCTTGCCAG (sugars e5 d10 e5, PS) |  |  | 25% |  |
| GGTGGTTGCAATGTTGCCAT (sugars e5 d10 e5, PS) | 90% and 76% | 93% and 90% |  |  |
| GGTTGCAATGTTGCCATCAT (sugars e5 d10 e5, PS) | 91% and 83% | 93% and 91% |  |  |
| GGTTGTGTGTCTTCACCAGC (sugars e2 d13 e5, PS) |  |  | 68% |  |
| GTACTCCCTCAACACAGGCA (sugars e5 d10 e5, PS) |  |  | 72% |  |
| GTCACCTCTTCCAGGAAGAC (sugars e5 d10 e5, PS) | 83% and 73% and 76% | 92% and 88% |  |  |
| GTGAAGTTCTATCCCTTGGC (sugars e5 d10 e5, PS) | 58% and 71% | 91% and 93% |  |  |
| GTGACCTTGGGATAGTCCCT (sugars e5 d10 e5, PS) | 76% and 69% | 92% and 89% |  |  |
| GTGCTCTGTGGGCTCCTCCA (sugars e5 d10 e5, PS) | 69% | 83% |  |  |

| Sequence | target mRNA inhibition (HepG2, 2.5 µM) | target mRNA inhibition (HepG2, 10 µM) | target mRNA inhibition (HepG2, 0.12 µM) | target mRNA inhibition (HepG2, 20 µM) |
| --- | --- | --- | --- | --- |
| GTGGCTCTCTAGATAGGGTG (sugars e5 d10 e5, PS) | 68% | 84% |  |  |
| GTGGTTGCAATGTTGCCATC (sugars e5 d10 e5, PS) | 83% and 81% and 76% | 92% and 84% and 91% |  |  |
| GTGTAGCCAGGTAAGGCCGT (sugars e5 d10 e5, PS) |  |  | 50% |  |
| GTTAGGATGCTTAACTTCTG (sugars e5 d10 e5, PS) | 51% | 86% |  |  |
| GTTCTTGGGCCTAAAGGTGA (sugars e5 d10 e5, PS) |  |  | 34% |  |
| GTTGTGTGTCTTCACCAGCT (sugars e2 d13 e5, PS) |  |  | 65% |  |
| GTTGTGTGTCTTCACCAGCT (sugars e5 d10 e5, PS) |  |  | 54% and 68% |  |
| GTTTACTGTGGCACTAAGCT (sugars e5 d10 e5, PS) | 57% | 84% |  |  |
| GTTTCCTTTGAAATCCAATG (sugars e5 d10 e5, PS) | 69% and 68% | 90% and 81% |  |  |
| GTTTCGGACCCACTGTGACC (sugars e5 d10 e5, PS) |  |  | 65% |  |
| GTTTTGGGAACTCATGCATT (sugars e5 d10 e5, PS) |  |  | 50% |  |
| TAAATAACCCACAGACACCC (sugars e5 d10 e5, PS) |  |  | 6% |  |
| TAAGCCTCGGTGTCCTCTCC (sugars e5 d10 e5, PS) | 90% | 73% |  |  |
| TACTGACTTTTTCCTTCTTA (sugars e5 d10 e5, PS) |  |  | 39% |  |
| TAGCCAGGTAAGGCCGTATG (sugars e3 d14 e3, PS) |  |  | 49% |  |
| TAGTTCCTGGTGGTCAGCAG (sugars e5 d10 e5, PS) |  |  | 48% |  |
| TATAGTTCCTGGTGGTCAGC (sugars e5 d10 e5, PS) |  |  | 56% |  |
| TATCCAAAGATATAGTTCCT (sugars e5 d10 e5, PS) |  |  | 13% |  |
| TATTTCTGGAACTTCTTCTG (sugars e5 d10 e5, PS) |  |  | 22% |  |
| TCACAGAATTATCAGCAGTA (sugars e5 d10 e5, PS) | 80% and 61% | 93% and 84% |  |  |
| TCACCAGATTGTTGTGGGAA (sugars e5 d10 e5, PS) | 69% | 78% |  |  |
| TCACTTGCTTGAGGTCAGGG (sugars e5 d10 e5, PS) | 71% and 79% | 80% and 89% |  |  |
| TCAGAAGGCCAGGCCCCTTC (sugars e5 d10 e5, PS) |  |  | 20% |  |

| Sequence | target mRNA inhibition (HepG2, 2.5 µM) | target mRNA inhibition (HepG2, 10 µM) | target mRNA inhibition (HepG2, 0.12 µM) | target mRNA inhibition (HepG2, 20 µM) |
| --- | --- | --- | --- | --- |
| TCAGCCACCCAAGAAAAACC (sugars e5 d10 e5, PS) |  |  | 0% |  |
| TCATGAGAAGCTTAGAAGGC (sugars e5 d10 e5, PS) |  |  | 58% |  |
| TCCAAAGATATAGTTCCTGG (sugars e5 d10 e5, PS) |  |  | 63% |  |
| TCCAGACTGGATTTACTGAA (sugars e5 d10 e5, PS) |  |  | 60% |  |
| TCCCAGACCCCTCGCGCGAC (sugars e5 d10 e5, PS) |  |  | 36% |  |
| TCCCCAATATCATACTATCT (sugars e5 d10 e5, PS) | 50% | 88% |  |  |
| TCCTATCAGTTAGCAGTGCA (sugars e5 d10 e5, PS) | 81% and 68% | 86% and 83% |  |  |
| TCCTGGTGGTCAGCAGGTTG (sugars e5 d10 e5, PS) |  |  | 58% |  |
| TCGGAGGAGAAGAGGCCTCG (sugars e5 d10 e5, PS) |  |  | 60% |  |
| TCTCATCAAGAGATAACAGA (sugars e5 d10 e5, PS) |  |  | 6% |  |
| TCTGGACCCATCGGCCCCAG (sugars e5 d10 e5, PS) |  |  | 20% |  |
| TCTTTGAAAGCAAATAGTCT (sugars e5 d10 e5, PS) |  |  | 40% |  |
| TGACCTGTAGCTGCTTTTCC (sugars e5 d10 e5, PS) |  |  | 35% |  |
| TGAGTAAGGGTATTCTGCTC (sugars e5 d10 e5, PS) | 80% and 72% | 93% and 91% |  |  |
| TGAGTAGTCAAAGGTGGCTT (sugars e5 d10 e5, PS) |  |  | 30% |  |
| TGATAGCATTGCCACTCCCA (sugars e5 d10 e5, PS) |  |  | 64% |  |
| TGATCTCATCAAGAGATAAC (sugars e5 d10 e5, PS) |  |  | 17% |  |
| TGATTCTTACCTGCAATGAG (sugars e5 d10 e5, PS) |  |  | 22% |  |
| TGCACCTTGTATTAAATACT (sugars e5 d10 e5, PS) | 76% and 65% | 93% and 87% |  |  |
| TGCCAATGCCTAGGTCACAG (sugars e5 d10 e5, PS) | 78% and 87% | 87% and 91% |  |  |
| TGCTCAGTTCTTCCAACCAG (sugars e5 d10 e5, PS) | 86% and 79% | 93% and 94% |  |  |
| TGCTTATCCTTGAGGGTCTC (sugars e5 d10 e5, PS) | 64% | 84% |  |  |

Reference: the OligoGym collection
